Results: PubChem BioAssay (NCI)
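GI50: concentration for 50% inhibition of growth. TGI denotes the concentration required for complete inhibition of growth.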

Assays:
Assay in all cases: inhibition of tumour cell growth, NCI panel, 384-well format
786-0 renal = system: 786-0 renal
A498 renal = system: A498 renal
A549 NSCLC = system: A549 NSCLC
ACHN renal = system: ACHN renal
BT-549 breast = system: BT-549 breast
CAKI-1 renal = system: CAKI-1 renal
CCRF-CEM leukemia = system: CCRF-CEM leukemia
COLO 205 colon = system: COLO 205 colon
HCC-2998 colon = system: HCC-2998 colon
HCT-15 colon = system: HCT-15 colon
HL-60(TB) leukemia = system: HL-60(TB) leukemia
HOP-62 NSCLC = system: HOP-62 NSCLC
HOP-92 NSCLC = system: HOP-92 NSCLC
HT29 colon = system: HT29 colon
IGROV1 ovarian = system: IGROV1 ovarian
K-562 leukemia = system: K-562 leukemia
KM12 colon = system: KM12 colon
LOX IMVI melanoma = system: LOX IMVI melanoma
M14 melanoma = system: M14 melanoma
MALME-3M melanoma = system: MALME-3M melanoma
MDA-MB-231 breast = system: MDA-MB-231 breast
MDA-MB-435 melanoma = system: MDA-MB-435 melanoma
MDA-MB-468 breast = system: MDA-MB-468 breast
MOLT-4 leukemia = system: MOLT-4 leukemia
NCI-H226 lung = system: NCI-H226 lung
NCI-H23 lung = system: NCI-H23 lung
NCI-H322M lung = system: NCI-H322M lung
NCI-H460 NSCLC = system: NCI-H460 NSCLC
NCI-H522 lung = system: NCI-H522 lung
NCI/ADR-RES ovarian = system: NCI/ADR-RES ovarian
OVCAR-3 ovarian = system: OVCAR-3 ovarian
OVCAR-4 ovarian = system: OVCAR-4 ovarian
OVCAR-5 ovarian = system: OVCAR-5 ovarian
OVCAR-8 ovarian = system: OVCAR-8 ovarian
PC-3 prostate = system: PC-3 prostate
RPMI-8226 leukemia = system: RPMI-8226 leukemia
RXF 393 renal = system: RXF 393 renal
SF-268 CNS = system: SF-268 CNS
SF-295 CNS = system: SF-295 CNS
SF-539 CNS = system: SF-539 CNS
SK-MEL-2 melanoma = system: SK-MEL-2 melanoma
SK-MEL-28 melanoma = system: SK-MEL-28 melanoma
SK-MEL-5 melanoma = system: SK-MEL-5 melanoma
SK-OV-3 ovarian = system: SK-OV-3 ovarian
SN12C renal = system: SN12C renal
SNB-19 CNS = system: SNB-19 CNS
SR leukemia = system: SR leukemia
SW-620 colon = system: SW-620 colon
T-47D breast = system: T-47D breast
TK-10 renal = system: TK-10 renal
U251 glioblastoma = system: U251 glioblastoma
UACC-257 melanoma = system: UACC-257 melanoma
UACC-62 melanoma = system: UACC-62 melanoma
UO-31 renal = system: UO-31 renal

**Q.** How did the GI50 ([…]-0 renal) turn out when `CN(C)C/C=C/C(=O)Nc1ccc(C(=O)N[C@@]2(C)CCC[C@@H](Nc3ncc(Cl)c(-c4c[nH]c5ccccc45)n3)C2)nc1` was run?
**A.** < 10 nM

**Q.** And the TGI (786-0 renal)?
**A.** 26.2 nM

**Q.** And the GI50 (A498 renal)?
**A.** < 10 nM

**Q.** And the TGI (A498 renal)?
**A.** 15.2 nM

**Q.** And the GI50 (A549 NSCLC)?
**A.** < 10 nM

**Q.** And the TGI (A549 NSCLC)?
**A.** 116 nM

**Q.** And the GI50 (ACHN renal)?
**A.** < 10 nM

**Q.** And the TGI (ACHN renal)?
**A.** 88.6 nM

**Q.** What about the GI50 (BT-549 breast) of the same compound?
**A.** < 10 nM

**Q.** And the TGI (BT-549 breast)?
**A.** < 10 nM

**Q.** And the GI50 (CAKI-1 renal)?
**A.** < 10 nM

**Q.** What about the TGI (CAKI-1 renal) of the same compound?
**A.** 103 nM

**Q.** What about the GI50 (CCRF-CEM leukemia) of the same compound?
**A.** < 10 nM

**Q.** What about the TGI (CCRF-CEM leukemia) of the same compound?
**A.** < 10 nM

**Q.** What about the GI50 (COLO 205 colon) of the same compound?
**A.** < 10 nM

**Q.** And the TGI (COLO 205 colon)?
**A.** < 10 nM

**Q.** And the GI50 (HCC-2998 colon)?
**A.** < 10 nM

**Q.** What about the TGI (HCC-2998 colon) of the same compound?
**A.** 15.8 nM

**Q.** And the GI50 (HCT-15 colon)?
**A.** < 10 nM

**Q.** What about the TGI (HCT-15 colon) of the same compound?
**A.** 64.6 nM

**Q.** And the GI50 (HL-60(TB) leukemia)?
**A.** < 10 nM

**Q.** What about the TGI (HL-60(TB) leukemia) of the same compound?
**A.** < 10 nM

**Q.** What about the GI50 (HOP-62 NSCLC) of the same compound?
**A.** < 10 nM

**Q.** What about the TGI (HOP-62 NSCLC) of the same compound?
**A.** < 10 nM

**Q.** And the GI50 (HOP-92 NSCLC)?
**A.** < 10 nM

**Q.** What about the TGI (HOP-92 NSCLC) of the same compound?
**A.** 136 nM

**Q.** And the GI50 (HT29 colon)?
**A.** < 10 nM

**Q.** What about the TGI (HT29 colon) of the same compound?
**A.** 72.2 nM

**Q.** And the GI50 (IGROV1 ovarian)?
**A.** < 10 nM

**Q.** And the TGI (IGROV1 ovarian)?
**A.** 127 nM

**Q.** And the GI50 (K-562 leukemia)?
**A.** < 10 nM

**Q.** And the TGI (K-562 leukemia)?
**A.** 43.5 nM

**Q.** What about the GI50 (KM12 colon) of the same compound?
**A.** < 10 nM

**Q.** What about the TGI (KM12 colon) of the same compound?
**A.** 10.8 nM

**Q.** And the GI50 (LOX IMVI melanoma)?
**A.** < 10 nM

**Q.** And the TGI (LOX IMVI melanoma)?
**A.** < 10 nM

**Q.** What about the GI50 (M14 melanoma) of the same compound?
**A.** < 10 nM

**Q.** What about the TGI (M14 melanoma) of the same compound?
**A.** 13.7 nM

**Q.** And the GI50 (MALME-3M melanoma)?
**A.** 12.5 nM

**Q.** And the TGI (MALME-3M melanoma)?
**A.** 26.3 nM

**Q.** What about the GI50 (MDA-MB-231 breast) of the same compound?
**A.** < 10 nM

**Q.** And the TGI (MDA-MB-231 breast)?
**A.** 115 nM

**Q.** What about the GI50 (MDA-MB-435 melanoma) of the same compound?
**A.** < 10 nM

**Q.** What about the TGI (MDA-MB-435 melanoma) of the same compound?
**A.** 15.7 nM

**Q.** What about the GI50 (MDA-MB-468 breast) of the same compound?
**A.** < 10 nM

**Q.** And the TGI (MDA-MB-468 breast)?
**A.** < 10 nM

**Q.** And the GI50 (MOLT-4 leukemia)?
**A.** < 10 nM

**Q.** What about the TGI (MOLT-4 leukemia) of the same compound?
**A.** < 10 nM

**Q.** And the GI50 (NCI-H226 lung)?
**A.** < 10 nM

**Q.** What about the TGI (NCI-H226 lung) of the same compound?
**A.** 34.1 nM

**Q.** And the GI50 (NCI-H23 lung)?
**A.** < 10 nM

**Q.** What about the TGI (NCI-H23 lung) of the same compound?
**A.** 14.4 nM

**Q.** And the GI50 (NCI-H322M lung)?
**A.** < 10 nM

**Q.** And the TGI (NCI-H322M lung)?
**A.** 41.3 nM

**Q.** What about the GI50 (NCI-H460 NSCLC) of the same compound?
**A.** < 10 nM

**Q.** And the TGI (NCI-H460 NSCLC)?
**A.** < 10 nM

**Q.** What about the GI50 (NCI-H522 lung) of the same compound?
**A.** < 10 nM

**Q.** And the TGI (NCI-H522 lung)?
**A.** < 10 nM

**Q.** And the GI50 (NCI/ADR-RES ovarian)?
**A.** 202 nM

**Q.** And the TGI (NCI/ADR-RES ovarian)?
**A.** 1090 nM

**Q.** And the GI50 (OVCAR-3 ovarian)?
**A.** < 10 nM

**Q.** What about the TGI (OVCAR-3 ovarian) of the same compound?
**A.** 12.9 nM

**Q.** What about the GI50 (OVCAR-4 ovarian) of the same compound?
**A.** < 10 nM

**Q.** What about the TGI (OVCAR-4 ovarian) of the same compound?
**A.** 35.9 nM

**Q.** And the GI50 (OVCAR-5 ovarian)?
**A.** < 10 nM

**Q.** And the TGI (OVCAR-5 ovarian)?
**A.** 1310 nM

**Q.** What about the GI50 (OVCAR-8 ovarian) of the same compound?
**A.** < 10 nM

**Q.** And the TGI (OVCAR-8 ovarian)?
**A.** 27.8 nM

**Q.** What about the GI50 (PC-3 prostate) of the same compound?
**A.** < 10 nM

**Q.** What about the TGI (PC-3 prostate) of the same compound?
**A.** 44.4 nM

**Q.** And the GI50 (RPMI-8226 leukemia)?
**A.** < 10 nM

**Q.** And the TGI (RPMI-8226 leukemia)?
**A.** < 10 nM

**Q.** What about the GI50 (RXF 393 renal) of the same compound?
**A.** < 10 nM

**Q.** And the TGI (RXF 393 renal)?
**A.** < 10 nM

**Q.** And the GI50 (SF-268 CNS)?
**A.** < 10 nM

**Q.** What about the TGI (SF-268 CNS) of the same compound?
**A.** 16.2 nM

**Q.** What about the GI50 (SF-295 CNS) of the same compound?
**A.** < 10 nM

**Q.** And the TGI (SF-295 CNS)?
**A.** 67.5 nM

**Q.** What about the GI50 (SF-539 CNS) of the same compound?
**A.** < 10 nM

**Q.** What about the TGI (SF-539 CNS) of the same compound?
**A.** 20.4 nM

**Q.** And the GI50 (SK-MEL-2 melanoma)?
**A.** < 10 nM

**Q.** What about the TGI (SK-MEL-2 melanoma) of the same compound?
**A.** 10.9 nM

**Q.** And the GI50 (SK-MEL-28 melanoma)?
**A.** < 10 nM

**Q.** What about the TGI (SK-MEL-28 melanoma) of the same compound?
**A.** < 10 nM

**Q.** What about the GI50 (SK-MEL-5 melanoma) of the same compound?
**A.** < 10 nM

**Q.** And the TGI (SK-MEL-5 melanoma)?
**A.** 13.3 nM

**Q.** And the GI50 (SK-OV-3 ovarian)?
**A.** < 10 nM

**Q.** What about the TGI (SK-OV-3 ovarian) of the same compound?
**A.** 85.4 nM

**Q.** What about the GI50 (SN12C renal) of the same compound?
**A.** < 10 nM

**Q.** What about the TGI (SN12C renal) of the same compound?
**A.** 17.2 nM

**Q.** And the GI50 (SNB-19 CNS)?
**A.** < 10 nM

**Q.** And the TGI (SNB-19 CNS)?
**A.** 1340 nM

**Q.** What about the GI50 (SR leukemia) of the same compound?
**A.** < 10 nM

**Q.** And the TGI (SR leukemia)?
**A.** < 10 nM

**Q.** And the GI50 (SW-620 colon)?
**A.** < 10 nM

**Q.** What about the TGI (SW-620 colon) of the same compound?
**A.** 22.9 nM

**Q.** What about the GI50 (T-47D breast) of the same compound?
**A.** 15.6 nM

**Q.** And the TGI (T-47D breast)?
**A.** 144 nM

**Q.** And the GI50 (TK-10 renal)?
**A.** 16.7 nM

**Q.** And the TGI (TK-10 renal)?
**A.** 101 nM

**Q.** What about the GI50 (U251 glioblastoma) of the same compound?
**A.** < 10 nM

**Q.** What about the TGI (U251 glioblastoma) of the same compound?
**A.** 30.2 nM

**Q.** And the GI50 (UACC-257 melanoma)?
**A.** < 10 nM

**Q.** What about the TGI (UACC-257 melanoma) of the same compound?
**A.** 15.4 nM

**Q.** What about the GI50 (UACC-62 melanoma) of the same compound?
**A.** < 10 nM

**Q.** What about the TGI (UACC-62 melanoma) of the same compound?
**A.** < 10 nM

**Q.** What about the GI50 (UO-31 renal) of the same compound?
**A.** 14 nM

**Q.** What about the TGI (UO-31 renal) of the same compound?
**A.** 42 nM
